Assays:
[1] = tested on: P. aeruginosa (2943 strain); assay: Antibacterial activity on 0.7% agar (inhibition zone); assay type: cell-based, Pseudomonas aeruginosa; parameters: key: +: The presence of a bacterial growth inhibition zone; −: The absence of a bacterial growth inhibition zone; details: drop on 0.7% agar, 24 h
Experimental: (§1) Drops of the samples were applied to the surface of solidified 0.7% agar at the concentrations indicated in Table 2 and Supplementary S2 (Figures S1–S4). After 24 h of incubation, the results were evaluated based on the presence or absence (+/−) of inhibition zones.
(§2) Once the agar solidified, drops of peptide samples at the concentrations 1, 0.1, 0.01, and 0.001 mg/mL were applied to the agar surface.

MRSA (SA 180-F strain) [2] = assay: Early biofilm formation, crystal violet staining; assay type: cell-based, methicillin-resistant Staphylococcus aureus; parameters: key: ↓: Decrease in the parameter (optical density) compared to the negative control; −: No decrease in the parameter; ↑: Reverse effect (increase in the optical density compared to the control); details: peptide present from inoculation, 24 h, OD 595 nm
Experimental: (§3) After 24 h of incubation, the medium was removed. To assess the total biofilm biomass, the wells were rinsed with sterile PBS solution and stained with 0.1% crystal violet. The dye bound to the surface was then removed using 95% ethanol. To assess the presence of metabolically active cells, 0.3% MTT (PanEco Ltd., Moscow, Russia) solution was added to each well, and the plates were incubated at 37 °C for 2 h. After incubation, the MTT solution was removed, 150 µL of DMSO (Chimmed, Moscow, Russia) and 25 µL of glycine buffer were added to each well, and the plates were left at room temperature for 15 min. The resulting solutions were transferred to a flat-bottom 96-well plate, and optical density was measured at 595 nm.

E. coli (MG1655 strain) [3] = assay: Antibacterial activity in liquid medium (optical density); assay type: cell-based, Escherichia coli; parameters: key to change of optical density vs negative control: ↓: Decrease in the parameter (optical density) compared to the negative control; −: No decrease in the parameter; ↑: Reverse effect (increase in the optical density compared to the control); details: 24 h, 37 °C; for change of optical density vs negative control: OD 595 nm
Experimental: (§4) To evaluate the antibacterial activity of peptides in liquid culture, a stationary-phase culture of the tested bacterial strain was diluted 100-fold in fresh medium containing peptides or gentamicin (positive control) at the specified concentrations. A total volume of 200 µL was added to each well of a 96-well round-bottom microtiter plate. After 24 h of incubation at 37 °C, the samples were transferred to a flat-bottom 96-well microtiter plate, and the optical density was measured at 595 nm. Separately, the optical density of medium containing peptides but no bacteria was measured. These values were used as baseline (zero) readings for subsequent data analysis.

S. aureus (129B strain) [4] = assay: Early biofilm formation, crystal violet staining; assay type: cell-based, Staphylococcus aureus; parameters: key: ↓: Decrease in the parameter (optical density) compared to the negative control; −: No decrease in the parameter; ↑: Reverse effect (increase in the optical density compared to the control); details: peptide present from inoculation, 24 h, OD 595 nm
Experimental: as §3

S. aureus (129B strain) [5] = assay: Antibacterial activity in liquid medium (optical density); assay type: cell-based, Staphylococcus aureus; parameters: key to change of optical density vs negative control: ↓: Decrease in the parameter (optical density) compared to the negative control; −: No decrease in the parameter; ↑: Reverse effect (increase in the optical density compared to the control); details: 24 h, 37 °C, OD 595 nm
Experimental: as §4

MRSA (SA 180-F strain) [6] = assay: Antibacterial activity on 0.7% agar (inhibition zone); assay type: cell-based, methicillin-resistant Staphylococcus aureus; parameters: key: +: The presence of a bacterial growth inhibition zone; −: The absence of a bacterial growth inhibition zone; details: drop on 0.7% agar, 24 h
Experimental: as §1, §2

MRSA (SA 180-F strain) [7] = assay: Mature biofilms, MTT assay; assay type: cell-based, methicillin-resistant Staphylococcus aureus; parameters: key: ↓: Decrease in the parameter (optical density) compared to the negative control; −: No decrease in the parameter; ↑: Reverse effect (increase in the optical density compared to the control); details: mature biofilm: peptide added after 24 h, further 24 h; 0.01-10 mg/mL
Experimental: as §3
(§5) A stationary-phase culture of the tested strain was diluted 100-fold in fresh medium (200 µL per well) and added to the wells of a 96-well round-bottom plate. […] After another 24 h, the medium was removed and the wells were rinsed with sterile PBS to eliminate planktonic cells. The procedures for assessing total biofilm biomass and cell metabolic activity using crystal violet and MTT assays were performed in the same manner as described above for early-stage biofilm experiments.

MRSA (SA 180-F strain) [8] = assay: Early biofilm formation, MTT assay; assay type: cell-based, methicillin-resistant Staphylococcus aureus; parameters: key: ↓: Decrease in the parameter (optical density) compared to the negative control; −: No decrease in the parameter; ↑: Reverse effect (increase in the optical density compared to the control); details: 24 h, 0.3% MTT 2 h 37 °C, OD 595 nm
Experimental: as §3

E. coli (MG1655 strain) [9] = assay: Early biofilm formation, crystal violet staining; assay type: cell-based, Escherichia coli; parameters: key: ↓: Decrease in the parameter (optical density) compared to the negative control; −: No decrease in the parameter; ↑: Reverse effect (increase in the optical density compared to the control); details: peptide present from inoculation, 24 h, OD 595 nm
Experimental: as §3

E. coli (MG1655 strain) [10] = assay: Mature biofilms, MTT assay; assay type: cell-based, Escherichia coli; details: mature biofilm
Experimental: as §3, §5

[11] = tested on: P. aeruginosa (2943 strain); assay: Antibacterial activity in liquid medium (optical density); assay type: cell-based, Pseudomonas aeruginosa; parameters: key to change of optical density vs negative control: ↓: Decrease in the parameter (optical density) compared to the negative control; −: No decrease in the parameter; ↑: Reverse effect (increase in the optical density compared to the control); details: 24 h, 37 °C; for change of optical density vs negative control: OD 595 nm
Experimental: as §4

E. coli (MG1655 strain) [12] = assay: Mature biofilms, MTT assay; assay type: cell-based, Escherichia coli; parameters: key: ↓: Decrease in the parameter (optical density) compared to the negative control; −: No decrease in the optical density; ↑: Reverse effect (increase in the optical density compared to the control); details: mature biofilm: peptide added after 24 h, further 24 h; 0.01-10 mg/mL
Experimental: as §3, §5

VTDFGVFVEIGGGGSRQIKIWFQNRRMKWKK [V31K^T, amyloidogenic fragment of S1 of T. thermophilus linked via glycine-rich linker to antennapedia peptide]
↓ (0.01 mg/mL): change of optical density after MTT assay vs negative control (MRSA (SA 180-F strain) [7])
↓ (0.1 mg/mL): change of optical density vs negative control (E. coli (MG1655 strain) [3]; listed as V31K^S)
↑: change of optical density after crystal violet staining vs negative control (MRSA (SA 180-F strain) [2]) | change of optical density after crystal violet staining vs negative control (S. aureus (129B strain) [4]) | change of optical density vs negative control (S. aureus (129B strain) [5]; listed as V31K^S) | change of optical density after MTT assay vs negative control (MRSA (SA 180-F strain) [8]) | change of optical density after crystal violet staining vs negative control (E. coli (MG1655 strain) [9])
↓ (10 mg/mL): change of optical density after crystal violet staining vs negative control (MRSA (SA 180-F strain) [2]; listed as V31K^S) | change of optical density vs negative control ([11]; listed as V31K^S)
−: bacterial growth inhibition zone ([1]; 0.001 mg/mL) | bacterial growth inhibition zone ([1]; 0.01 mg/mL) | bacterial growth inhibition zone ([1]; 0.1 mg/mL) | bacterial growth inhibition zone ([1]; 1 mg/mL) | change of optical density vs negative control (E. coli (MG1655 strain) [3]) | change of optical density vs negative control (S. aureus (129B strain) [5]) | bacterial growth inhibition zone (MRSA (SA 180-F strain) [6]; 0.001 mg/mL) | bacterial growth inhibition zone (MRSA (SA 180-F strain) [6]; 0.01 mg/mL) | bacterial growth inhibition zone (MRSA (SA 180-F strain) [6]; 0.1 mg/mL) | bacterial growth inhibition zone (MRSA (SA 180-F strain) [6]; 1 mg/mL) | change of optical density vs negative control [11] | change of optical density after MTT assay vs negative control (E. coli (MG1655 strain) [12])
10 mg/mL: concentration given with ↓ (decrease in optical density) [11]
0.1 mg/mL: concentration given with ↓ (decrease in optical density) (E. coli (MG1655 strain) [3])
did not inhibit: residual viability of cells (MTT) (E. coli (MG1655 strain) [10])
